What was measured:
Format in all cases: cell-based
[1] = system: NF-κB; test: Immunological activity test: inhibition of NF-κB activity; conditions: initial concentration of 30 μM; a/b isomers given as first/second symbol; read-out: IC50 (μM), inhibitory activity against NF-κB
How it was run: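 IC50 values were derived after initial screening of compounds at 30 μM for NF-κB inhibitory activity, with parthenolide serving as the positive control.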

[2] = system: human embryonic lung fibroblast IMR-90; test: Anti-fibrosis activity test: inhibition of proliferation of human embryonic lung fibroblast IMR-90 (CCK-8)
How it was run: (§1)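 After one day of adherence at 37° C in 5% CO2, cells (seeded at 2×10^4 cells/mL) received the compounds for two days in triplicate. Inhibition of proliferation was quantified with CCK-8 at 450 nm, with IC50 calculated from IR = (1−Ai/Ao)×100%.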

[3] = system: human dermal fibroblasts CCC-ESF-1; test: Anti-fibrosis activity test: inhibition of proliferation of human dermal fibroblasts CCC-ESF-1 (CCK-8); conditions: Fibroblast
How it was run: as §1

[4] = system: human hepatic stellate cells LX-2; test: Anti-fibrosis activity test: inhibition of proliferation of human hepatic stellate cells LX-2 (CCK-8); conditions: Homo sapiens, 48 h
How it was run: as §1

[5] = system: human lung fibroblasts HFL1; test: Anti-fibrosis activity test: inhibition of proliferation of human lung fibroblasts HFL1 (CCK-8); conditions: Homo sapiens, HFL1, 48 h
How it was run: as §1

[6] = system: human fibrosarcoma cells HT-1080; test: Anti-fibrosis activity test: inhibition of proliferation of human fibrosarcoma cells HT-1080 (CCK-8); conditions: Homo sapiens, HT-1080, 48 h
How it was run: as §1

[7] = system: cardiac fibroblast RAT-iCell-C002; test: Anti-fibrosis activity test: inhibition of proliferation of cardiac fibroblast RAT-iCell-C002 (CCK-8); conditions: Cardiac fibroblast, 48 h
How it was run: as §1

[8] = system: BHK-21 cells; test: Anti-fibrosis activity test: inhibition of BHK-21 cell proliferation (CCK-8); conditions: Mesocricetus auratus, BHK-21, 48 h
How it was run: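 BHK-21 cells seeded at 2×10^4 cells/mL, allowed to adhere 24 h at 37° C, 5% CO2, then exposed to compounds at graded concentrations in triplicate for 48 h. CCK-8 added for 2 h and absorbance read at 450 nm; inhibition rate taken as (1−Ai/Ao)×100% and IC50 fitted.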

[9] = human embryonic lung fibroblast IMR-90, CCK-8, 48 hours
[10] = human dermal fibroblasts CCC-ESF-1, CCK-8, 48 hours
[11] = human hepatic stellate cells LX-2, CCK-8, 48 hours
[12] = human lung fibroblasts HFL1, CCK-8, 48 hours
[13] = human fibrosarcoma cells HT-1080, CCK-8, 48 hours
[14] = cardiac fibroblast RAT-iCell-C002, CCK-8, 48 hours
[15] = CCK-8, 48 hours after administration
[16] = Homo sapiens, IMR-90 cells, 48 h, CCK-8
[17] = Homo sapiens, CCC-ESF-1 cells, 48 h, CCK-8

SMILES	IC50 [1] [µM]	IC50 [2, 9] [mM]	IC50 [3, 10] [mM]	IC50 [4, 11] [mM]	IC50 [5, 12] [mM]	IC50 [6, 13] [mM]	IC50 [7, 14] [mM]	IC50 [8, 15] [mM]	IC50 [2, 16] [mM]	IC50 [3, 17] [mM]	IC50 ([4]; LX-2, 48 h, LX-2 cells, CCK-8) [mM]	IC50 ([5]; HFL1 cells, 48 h, CCK-8) [mM]	IC50 ([6]; HT-1080 cells, 48 h, CCK-8) [mM]	IC50 ([7]; RAT-iCell-C002 cells, CCK-8) [mM]	IC50 ([8]; 48 h, CCK-8) [mM]
O=C1c2c(nc3ccc(F)cc3c2OCc2cc(C(F)(F)F)cc(C(F)(F)F)c2)-c2cccn21 [Compound 623b, 9-((3,5-bis(trifluoromethyl)benzyl)oxy)-7-fluoro-10H-pyrrolizino[1,2-b]quinolin-10-one]	1 to 10	0.05 to 5	0.05 to 5	0.05 to 5	0.05 to 5	0.05 to 5	0.05 to 5	0.05 to 5							
N#Cc1ccc2c(c1)c(=O)c1c(n2Cc2ccc(F)cc2)-c2cccn2C1=O [Compound 624a, 4-(4-Fluorobenzyl)-9,10-dioxo-4,10-dihydro-9H-pyrrolizino[1,2-b]quinoline-7-carbonitrile]	0.1 to 1	0.05 to 5	0.05 to 5	5 to 20	< 0.05	0.05 to 5	0.05 to 5	< 0.05							
N#Cc1ccc2nc3c(c(OCc4ccc(F)cc4)c2c1)C(=O)n1cccc1-3 [Compound 624b, 9-((4-fluorobenzyl)oxy)-10-oxo-10H-pyrrolizino[1,2-b]quinoline-7-carbonitrile]	1 to 10	0.05 to 5	0.05 to 5	5 to 20	< 0.05	0.05 to 5	0.05 to 5	0.05 to 5							
N#Cc1ccc2c(c1)c(=O)c1c(n2Cc2ccc(Cl)cc2)-c2cccn2C1=O [Compound 625a, 4-(4-Chlorobenzyl)-9,10-dioxo-4,10-dihydro-9H-pyrrolizino[1,2-b]quinoline-7-carbonitrile]	1 to 10	0.05 to 5	0.05 to 5	0.05 to 5	0.05 to 5	0.05 to 5	0.05 to 5	0.05 to 5							
N#Cc1ccc2nc3c(c(OCc4ccc(Cl)cc4)c2c1)C(=O)n1cccc1-3 [Compound 625b, 9-((4-chlorobenzyl)oxy)-10-oxo-10H-pyrrolizino[1,2-b]quinoline-7-carbonitrile]	1 to 10	0.05 to 5	0.05 to 5	0.05 to 5	0.05 to 5	0.05 to 5	0.05 to 5	0.05 to 5							
N#Cc1ccc(Cn2c3c(c(=O)c4cc(C#N)ccc42)C(=O)n2cccc2-3)cc1 [Compound 626a, 4-(4-Cyanobenzyl)-9,10-dioxo-4,10-dihydro-9H-pyrrolizino[1,2-b]quinoline-7-carbonitrile]	1 to 10	0.05 to 5	< 0.05	0.05 to 5	0.05 to 5	0.05 to 5	0.05 to 5	0.05 to 5							
N#Cc1ccc(COc2c3c(nc4ccc(C#N)cc24)-c2cccn2C3=O)cc1 [Compound 626b, 9-((4-cyanobenzyl)oxy)-10-oxo-10H-pyrrolizino[1,2-b]quinoline-7-carbonitrile]	1 to 10	0.05 to 5	< 0.05	0.05 to 5	0.05 to 5	0.05 to 5	0.05 to 5	0.05 to 5							
N#Cc1ccc2c(c1)c(=O)c1c(n2Cc2ccc(C(F)(F)F)cc2)-c2cccn2C1=O [Compound 627a, 9,10-Dioxo-4-(4-(trifluoromethyl)benzyl)-4,10-dihydro-9H-pyrrolizino[1,2-b]quinoline-7-carbonitrile]	1 to 10	0.05 to 5	0.05 to 5	0.05 to 5	0.05 to 5	0.05 to 5	0.05 to 5	< 0.05							
N#Cc1ccc2nc3c(c(OCc4ccc(C(F)(F)F)cc4)c2c1)C(=O)n1cccc1-3 [Compound 627b, 10-oxo-9-((4-(trifluoromethyl)benzyl)oxy)-10H-pyrrolizino[1,2-b]quinoline-7-carbonitrile]	1 to 10	0.05 to 5	0.05 to 5	0.05 to 5	0.05 to 5	0.05 to 5	0.05 to 5	0.05 to 5							
N#Cc1ccc2c(c1)c(=O)c1c(n2Cc2ccc(-c3ccccc3)cc2)-c2cccn2C1=O [Compound 628a, 4-([1,1′-Biphenyl]-4-ylmethyl)-9,10-dioxo-4,10-dihydro-9H-pyrrolizino[1,2-b]quinoline-7-carbonitrile]	1 to 10	0.05 to 5	0.05 to 5	0.05 to 5	5 to 20	0.05 to 5	0.05 to 5	0.05 to 5							
N#Cc1ccc2nc3c(c(OCc4ccc(-c5ccccc5)cc4)c2c1)C(=O)n1cccc1-3 [Compound 628b, 9-([1,1′-biphenyl]-4-ylmethoxy)-10-oxo-10H-pyrrolizino[1,2-b]quinoline-7-carbonitrile]	1 to 10	0.05 to 5	0.05 to 5	0.05 to 5	0.05 to 5	0.05 to 5	0.05 to 5	0.05 to 5							
N#Cc1ccc2c(c1)c(=O)c1c(n2Cc2ccc(-c3ccccc3C#N)cc2)-c2cccn2C1=O [Compound 629a, 4-((2′-Cyano-[1,1′-biphenyl]-4-yl)methyl)-9,10-dioxo-4,10-dihydro-9H-pyrrolizino[1,2-b]quinoline-7-carbonitrile]	1 to 10	0.05 to 5	< 0.05	0.05 to 5	0.05 to 5	0.05 to 5	0.05 to 5	< 0.05							
O=C1c2c(n(Cc3cc(C(F)(F)F)cc(C(F)(F)F)c3)c3cc(N4CCNCC4)ccc3c2=O)-c2cccn21 [Compound 631a, 4-(3,5-Bis(trifluoromethyl)benzyl)-6-(piperazin-1-yl)-9H-pyrrolizino[1,2-b]quinoline-9,10(4H)-dione]	1 to 10	0.05 to 5	0.05 to 5	0.05 to 5	0.05 to 5	0.05 to 5	0.05 to 5	0.05 to 5							
Cc1ccc2c(=O)c3c([nH]c2c1)-c1cccn1C3=O [Compound 714a, 6-Methyl-9H-pyrrolizino[1,2-b]quinoline-9,10(4H)-dione]	1 to 10								0.05 to 5	0.05 to 5	0.05 to 5	0.05 to 5	0.05 to 5	0.05 to 5	0.05 to 5
Cc1ccc2c(O)c3c(nc2c1)-c1cccn1C3=O [Compound 714b, 9-hydroxy-6-methyl-10H-pyrrolizino[1,2-b]quinolin-10-one]	0.001 to 0.1								0.05 to 5	0.05 to 5	0.05 to 5	0.05 to 5	0.05 to 5	0.05 to 5	0.05 to 5

From patent publication US11040028B2, “Penicinotam derivative, preparation method and use thereof” (OCEAN UNIVERSITY OF CHINA, priority 2017, dated 2021)
